Data set [1] can be described thus: Stability of RNA in plasma after enzyme or detergent treatment, qPCR. In kind it is in vitro ADME, human. How it is done: The plasma samples were treated with various conditions (indicated on the top of the figure) prior to RNA isolation. The Y-axis represents the relative concentration change compared to no treatment determined by qPCR. The data represents the average changes from 9 plasma samples. The black bars represent the changes of an endogenous miRNA, miR-16, the open bars are exogenous miRNA, miR-263 from mosquitos and the gray bars are the 16S rRNA from Pseudomonas putida.
To explore the stability of exogenous RNA in plasma, we treated the plasma with RNase A from Fermentas™ (Thermo Scientific™, Wilmington, Del.) at a concentration at 1 μg/ml, DNase I (Fermentas™, Thermo Scientific™, Wilmington, Del.) at a concentration of 1 unit/ml, protease K (Fermentas™, Thermo Scientific™, Wilmington, Del.) at a concentration of 0.05 mg/ml, 0.1% Triton™ X 100, or protease K for 20 minutes followed by additional RNase A at 1 μg/ml after heat inactivation of protease K at 70° C. for 10 minutes prior for RNA isolation.
Adding additional RNase caused less reduction compared to protease followed by RNase treatments.
(In qPCR the cycle at which signal appears reflects the starting amount.)

Data set [2] has as its system mouse dicer deficient (DCR −/−) fibroblast cell line. Nature of the data set: Transfection of synthetic exogenous RNA into fibroblasts, effect on transcriptome (microarray, pathway enrichment of down-regulated genes). The conditions noted are these: 10 nM synthetic RNA, 24 hours; for effects on the cellular transcriptome (gene expression profiles): microarray; for Affected pathways: pathways enriched among down-regulated genes. It is filed as cell-based. An excerpt:
We transfected several synthetic, double-stranded RNA molecules selected from observed exogenous miRNA sequences and some highly abundant exogenous sequences (bacterial rRNAs) that have potential to form pre-miRNA-like secondary structures (FIG. 7) into a mouse fibroblast cell line.
The mouse dicer deficient (DCR −/−) fibroblast cell line was generated from a conditional cre and floxed Dicer allele transgenic mouse available from Jax (located on the web at jaxmice.jax.org/strain/006001.html) kindly provided by Dr. Jacques Peschon. Part of the RNase III domain encoded in the exon 23 of dicer gene was deleted following cre excision. DCR −/− cells were maintained in Dulbecco's modified Eagle's medium with high glucose. The media was supplemented with 10% FBS, 1% non-essential amino acid, 1% GlutaMAX™. The cells were routinely incubated at 37° C. in a humidified atmosphere with 5% CO2.
Lipofectamine™ RNAiMAX was purchased from Invitrogen (Life Technologies, Carlsbad, Calif.). Custom designed exogenous RNA used in transfection was obtained from Ambion (Life Technologies, Carlsbad, Calif.). DCR −/− cells were seeded at a density of 1×10^5 cells in 6-well tissue culture plates 24 h prior to transfect with 10 nM of synthetic RNAs. Cells exposed to transfection reagents only were used as control. After 24 hours in the transfection media, the cells were harvested for RNA isolation and the transfection efficiency was validated with qPCR.
Effects of exogenous RNAs on transcriptome were assessed by using the Agilent mouse 4×44K microarray (Agilent, Santa Clara, Calif.). Total RNAs were isolated with an miRNeasy® column (Qiagen, Valencia, Calif.), and both Cy3 and Cy5-labeled cRNA samples were prepared with two color labeling kit (Agilent Technologies, Santa Clara, Calif.) and then hybridized at 65° C. for 17 h. Signal intensity was calculated from digitized images captured by a scanner from Agilent (Santa Clara, Calif.), and data analysis was performed by using GeneSpring GX software (Agilent Technologies, Santa Clara, Calif.).
The expression profiles of a number of genes in the cells were affected by some of the exogenous RNA sequences. We verified the changes in levels of some of these affected genes' mRNA by QPCR (FIG. 8).

Data set [3] concerns mouse. The settings on record: in vivo.
From the text: An acetaminophen overdose mouse model for drug-induced liver injury was employed to determine the effect of liver injury on the RNA spectrum.
Data set [4] has as its system mouse.

Regarding “miR-263: exogenous miRNA AAUGGCACUGGAAGAAUUCACGG, miR-263a from mosquito; synthetic form transfected, native form measured in plasma (synthetic double-stranded RNA, chemistry not given here; listed as Culex pipiens)”, the “level of RNA in plasma after treatment” value in data set [1] (0.1% Triton X-100 prior to RNA isolation), in data set [1] (RNase A 1 μg/ml prior to RNA isolation), in data set [1] (protease K 0.05 mg/ml prior to RNA isolation) and in data set [1] (protease K for 20 minutes followed by RNase A 1 μg/ml) was “reduced significantly” in each case. Further, the “effects on the cellular transcriptome (gene expression profiles)” value in data set [2] is “did not produce any significant effects”. Moreover, the Affected pathways entry in data set [2] was “No enriched pathway”.
With `CC(=O)Nc1ccc(O)cc1` [acetaminophen], in data set [3], the “level of albumin transcript in plasma” value was “significantly increased”, the “level of apolipoprotein A2 (apoA2) transcript in plasma” value is listed as “significantly increased”, the “level of transferrin transcript in plasma” value is reported as “significantly increased” and the “number of transcripts in plasma affected” value was “Several hundred”. Also, in data set [3], the “time course of albumin transcript level in plasma” value is “spiked after 3 hours and decreased over a 24 hour period”; the “time course of apoA2 transcript level in plasma” value was “spiked after 3 hours and decreased over a 24 hour period”; the “time course of transferrin transcript level in plasma” value is “increased to a lesser extent but held reasonably steady over a 24-hour period”. Besides, in data set [4] (acetaminophen overdose), the “histopathology of liver tissues” value was “typical zoon 3 hepatocyte death”. In addition, the “histopathology of kidney tissues” value in data set [4] (mouse, in vivo) is recorded as “renal tubular injury”.
For the molecule “Bantam: synthetic RNA UGAGAUCAUUGUGAAAGCUGAUU, Bantam miRNA from house fly (synthetic double-stranded RNA, chemistry not given here; listed as Musca domestica)”, in data set [2], the “effects on the cellular transcriptome (gene expression profiles)” value is on record as “did not produce any significant effects” and the Affected pathways entry was “No enriched pathway”.

The values above are taken from US20140005054A1, “COMPLEX RNA COMPOSITION OF BODILY FLUIDS” (INSTITUTE FOR SYSTEMS BIOLOGY, priority 2012, published 2014).
